Data from the supplement of paper PMC10307832.

Assays:
Assay in all cases: relative viability (nuclei count vs DMSO), 5 days (fraction); higher = more cells survive
[1] = compound: COc1cc(Nc2ncc3c(n2)-c2ccc(Cl)cc2C(c2c(F)cccc2OC)=NC3)ccc1C(=O)O [Alisertib] + O=C(CCCCCCC(=O)Nc1ccccc1)NO [Vorinostat] (partner 1 µM)
How it was run: (§1)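 Dosing by pin tool came one day after lung cancer cell lines were seeded in 1536-well plates, using either one drug or a fixed anchor-drug dose plus five library-drug doses (not always all listed) in √10 steps. After 5 days, nuclei were counted on 4× images. Relative viability is treated-well nuclei count divided by vehicle-well nuclei count, and values are medians of duplicate plates.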

[2] = compound: COc1cc(Nc2ncc3c(n2)-c2ccc(Cl)cc2C(c2c(F)cccc2OC)=NC3)ccc1C(=O)O [Alisertib] + CS(=O)(=O)N1CCN(Cc2cc3nc(-c4cccc5[nH]ncc45)nc(N4CCOCC4)c3s2)CC1 [Pictilisib] (partner 1 µM)
How it was run: as §1

[3] = compound: COc1cc(Nc2ncc3c(n2)-c2ccc(Cl)cc2C(c2c(F)cccc2OC)=NC3)ccc1C(=O)O [Alisertib] + C[C@@H](Oc1cc(-c2cnn(C3CCNCC3)c2)cnc1N)c1c(Cl)ccc(F)c1Cl [Crizotinib] (partner 1 µM)
How it was run: as §1

[4] = compound: COc1cc(Nc2ncc3c(n2)-c2ccc(Cl)cc2C(c2c(F)cccc2OC)=NC3)ccc1C(=O)O [Alisertib] + Cc1nc(Nc2ncc(C(=O)Nc3c(C)cccc3Cl)s2)cc(N2CCN(CCO)CC2)n1 [Dasatinib] (partner 0.075 µM)
How it was run: as §1

Cell Line	relative viability ([1]; first compound 0.005 µM)	relative viability ([1]; first compound 0.01581 µM)	relative viability ([1]; first compound 0.05 µM)	relative viability ([1]; first compound 0.1581 µM)	relative viability ([1]; first compound 0.5 µM)	relative viability ([2]; first compound 0.005 µM)	relative viability ([2]; first compound 0.01581 µM)	relative viability ([2]; first compound 0.05 µM)	relative viability ([2]; first compound 0.1581 µM)	relative viability ([2]; first compound 0.5 µM)	relative viability ([3]; first compound 0.005 µM)	relative viability ([3]; first compound 0.01581 µM)	relative viability ([3]; first compound 0.05 µM)	relative viability ([3]; first compound 0.1581 µM)	relative viability ([3]; first compound 0.5 µM)	relative viability ([4]; first compound 0.005 µM)	relative viability ([4]; first compound 0.01581 µM)	relative viability ([4]; first compound 0.05 µM)	relative viability ([4]; first compound 0.1581 µM)	relative viability ([4]; first compound 0.5 µM)
201T	0.927	0.881	0.913	0.414	0.333	0.623	0.676	0.671	0.326	0.327	0.982	0.992	0.938	0.809	0.418	0.527	0.556	0.583	0.327	0.284
A549						0.423	0.123	0.051	0.0422	0.0618	0.611	0.197	0.0682	0.0571	0.0624					
A-427	0.603	0.41	0.313	0.27	0.262	0.615	0.451	0.234	0.147	0.172	0.903	0.839	0.136	0.146	0.174	0.645	0.565	0.291	0.139	0.128
ABC-1	0.993	0.753	0.46	0.249	0.332	0.674	0.606	0.578	0.277	0.232	1.1	0.551	0.363	0.318	0.23	0.46	0.436	0.434	0.226	0.243
BEN	0.522	0.456	0.332	0.332	0.385	0.554	0.508	0.276	0.24	0.224	0.868	0.838	0.238	0.213	0.237	0.499	0.39	0.296	0.178	0.138
CAL-12T	0.506	0.592	0.262	0.189	0.169	0.322	0.294	0.134	0.246	0.218	0.613	0.232	0.142	0.166	0.109	0.275	0.158	0.0813	0.113	0.0899
COR-L23	0.347	0.35	0.151	0.09	0.0909	0.662	0.632	0.248	0.137	0.0917	0.571	0.48	0.17	0.151	0.102	0.486	0.439	0.23	0.0935	0.0796
COR-L 105	0.687	0.701	0.496	0.302	0.321	0.44	0.34	0.336	0.264	0.281	0.857	0.587	0.621	0.523	0.251	0.291	0.296	0.293	0.194	0.177
Calu-6						0.726	0.379	0.164	0.171	0.153	0.697	0.334	0.204	0.227	0.198					
ChaGo-K-1	0.653	0.643	0.24	0.207	0.161	0.632	0.457	0.267	0.283	0.184	1.08	0.849	0.366	0.344	0.317	0.488	0.6	0.277	0.165	0.162
EKVX	0.684	0.551	0.285	0.263	0.319	0.405	0.418	0.266	0.157	0.15	0.796	0.807	0.313	0.182	0.219	0.541	0.47	0.243	0.244	0.229
EMC-BAC-2	0.28	0.257	0.202	0.186	0.151	0.516	0.414	0.291	0.271	0.233	0.683	0.382	0.25	0.225	0.148	0.315	0.221	0.185	0.161	0.128
EPLC-272H	0.454	0.401	0.248	0.104	0.132	0.281	0.244	0.227	0.14	0.124	0.931	0.851	0.739	0.201	0.113	0.304	0.365	0.382	0.0703	0.0736
H3255	0.8	0.822	0.656	0.337	0.264	0.472	0.447	0.286	0.165	0.152	0.909	0.765	0.662	0.205	0.174	0.328	0.445	0.279	0.242	0.292
HARA	0.44	0.131	0.0659	0.0632	0.0823	0.283	0.426	0.511	0.112	0.0803	1.05	0.796	0.277	0.169	0.135	0.265	0.283	0.279	0.125	0.0962
HCC-15	0.777	0.588	0.201	0.167	0.134	0.586	0.64	0.233	0.117	0.123	0.808	0.655	0.219	0.115	0.0945	0.45	0.332	0.232	0.104	0.102
HCC-44	1.05	0.784	0.397	0.387	0.339	0.623	0.598	0.572	0.153	0.159	0.872	0.769	0.388	0.219	0.176					
